In patent US20230212129A1, “QUINAZOLINE DERIVATIVES USEFUL AS SELECTIVE HDAC6 INHIBITORS” (AnnJi Pharmaceutical Co., Ltd., priority 2020, published 2023):

Experiments:
HDAC6 = biological target: T1, HDAC6 (Homo sapiens, UniProt Q9UBN7); test: HDAC6 activity, acetylated-AMC-labeled peptide substrate; type: biochemical
T1 construct: GST (N); host or cells: baculovirus expression system, Sf9 insect cells
T1 sequence (Q9UBN7 1-1215): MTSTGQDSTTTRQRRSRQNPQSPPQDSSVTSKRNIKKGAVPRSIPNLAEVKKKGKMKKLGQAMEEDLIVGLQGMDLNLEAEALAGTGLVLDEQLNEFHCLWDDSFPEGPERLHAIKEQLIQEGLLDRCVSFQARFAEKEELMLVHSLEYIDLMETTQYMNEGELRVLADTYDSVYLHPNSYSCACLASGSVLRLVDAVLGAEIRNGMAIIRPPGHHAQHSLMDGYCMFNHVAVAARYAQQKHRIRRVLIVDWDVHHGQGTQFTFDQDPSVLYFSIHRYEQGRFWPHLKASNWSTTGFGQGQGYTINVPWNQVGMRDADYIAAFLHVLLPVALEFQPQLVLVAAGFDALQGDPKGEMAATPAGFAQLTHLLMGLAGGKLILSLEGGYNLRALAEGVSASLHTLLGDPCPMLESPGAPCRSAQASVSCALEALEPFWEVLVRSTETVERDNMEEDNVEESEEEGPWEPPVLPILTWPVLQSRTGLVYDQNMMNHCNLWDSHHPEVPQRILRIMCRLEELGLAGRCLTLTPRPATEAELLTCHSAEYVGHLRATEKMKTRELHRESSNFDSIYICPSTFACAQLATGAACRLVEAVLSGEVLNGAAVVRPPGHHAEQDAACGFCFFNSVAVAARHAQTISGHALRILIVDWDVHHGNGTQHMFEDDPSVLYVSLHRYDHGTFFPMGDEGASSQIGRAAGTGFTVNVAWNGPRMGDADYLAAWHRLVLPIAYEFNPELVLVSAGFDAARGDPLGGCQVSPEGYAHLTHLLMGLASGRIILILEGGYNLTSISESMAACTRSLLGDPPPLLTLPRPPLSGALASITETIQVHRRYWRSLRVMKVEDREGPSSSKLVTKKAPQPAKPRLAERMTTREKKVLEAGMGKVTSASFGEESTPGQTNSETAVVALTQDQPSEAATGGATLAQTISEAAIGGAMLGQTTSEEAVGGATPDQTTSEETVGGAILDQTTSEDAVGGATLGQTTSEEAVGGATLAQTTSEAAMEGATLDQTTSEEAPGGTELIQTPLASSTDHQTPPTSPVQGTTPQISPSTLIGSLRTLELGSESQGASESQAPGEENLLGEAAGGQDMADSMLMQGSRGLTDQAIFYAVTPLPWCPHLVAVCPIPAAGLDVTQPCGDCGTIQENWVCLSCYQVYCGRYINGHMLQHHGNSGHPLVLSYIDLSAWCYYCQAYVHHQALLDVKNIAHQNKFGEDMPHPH
Experimental: The activities of HDAC 1 and 6 were measured by using an acetylated-AMC-labeled peptide substrate, a fluorogenic peptide from p53 residues 379-382 (RHIKKAc). The proteins involved in the assay are as the followings (1) Human HIDAC1 (Genflank Accession No. NM_004964): Full length with C-terminal GST tag, MW=79.9 kDa, expressed by baculovirus expression system in SP9 cells; and (2) Human HIDAC6 (Genflank Accession No. BC069243): Full length with N-terminal GST tag, MW=159 kDa, expressed by baculovirus expression system in Sf9 cells.

[1] = Oral pharmacokinetics (Table II); set-up: AUC: concentration or dose not given beside the values; conditions: in vivo
[2] = tested on: acetylated α-tubulin (Ac-α-tub); test: Western blot of acetylated α-tubulin in primary DRG cells; type: cell-based, C57BL/6J mice; conditions: 48 hours of treatment, FIG. 2
Experimental: To investigate the effect of HDAC6 inhibitors in neuron protection and neuron regeneration, the recovery of dorsal root ganglion (DRG) cells post-paclitaxel injury was tested. Dorsal root ganglion was extracted from 7 week-old female C57BL/6J mice and incubated with HDAC6 inhibitors (compounds COMPOUND 33, COMPOUND 34, or COMPOUND 2) at the concentrations of 0.1 μM and 1 μM, or 100 ng/ml of BDNF, a neuronal growth factor (positive control), for 24 hours prior to a 24-hour incubation of 0.1 μM paclitaxel.

Rat DRG cells = test: Cisplatin-induced neurite degeneration in DRG cells; type: cell-based; conditions: 0.3 μM with 0.5 mM cisplatin, 48 hours; p<0.05; FIG. 3
Experimental: Rat DRG cells were used to investigate the protective effect of HDAC6 inhibitors. DRG cells were treated with 0.5 mM of cisplatin with or without 0.3 μM of COMPOUND 2 or ACY1215 for 48 hours. The neurite area and the number of blebs (cell apoptosis) per image were calculated and their ratio values among the tested groups were compared and shown in FIG. 3.

IL-6 = IL-6 in bronchoalveolar lavage fluid, bleomycin model; type: in vivo, mice; conditions: prevention model, 30 mg/kg oral, 21 days; FIG. 6
Experimental: The activities of compounds COMPOUND 2 and COMPOUND 33 in preventing and/or treating pulmonary fibrosis were examined using a bleomycin-induced pulmonary fibrosis model, a model that involves deactivated bleomycin hydrolase, elevated oxidative stress, and increased inflammatory cytokines. In the prevention model, mice were administered bleomycin intratracheally an hour in prior to the first oral administration of 30 mg/kg testing compounds. The treatment continued for 21 consecutive days, and mice were sacrificed to examine histological changes of lung tissues were analyzed by H&E staining to evaluate the degree of lung fibrosis.

[3] = tested on: BioMAP Fibrosis panel (REMyoF, SAEMyoF, MyoF systems); test: BioMAP Fibrosis panel cytokine/biomarker profiles; type: cell-based
Experimental: The HDAC6 inhibitor compounds were tested in a commercially available platform, BioMAP, for the cytokine profiles in related to tissue injuries. The BioMAP Fibrosis panel included 3 systems stimulated to model TGFβ and TNFα driven myofibroblast differentiation during chronic inflammation and wound healing in different tissue settings. Fibrotic disease of the kidney associated with end-stage renal failure was captured in the REMyoF system consisting of a co-culture of renal proximal tubule epithelial cells and adult fibroblasts. Interstitial lung diseases, including pulmonary fibrotic diseases such as idiopathic pulmonary fibrosis (IPF), was modeled by co-culturing small airway epithelial cells and adult fibroblasts in the SAEMyoF system. Both co-culture systems modeled the paracrine interaction between myofibroblasts and the proximally located epithelial cells, while the impact on fibroblasts alone was interrogated using the monoculture MyoF system. A signature BioMAP profile that is reflective of the changes in protein biomarker readouts within an individual system was generated for each testing compounds. Biomarker readouts selected for therapeutic and biological relevance were predictive for disease outcomes or specific drug effects, and was validated using agents with known clinical efficacy. Each readout was measured quantitatively by immune-based methods that detect protein (e.g., ELISA).

HDAC6 selectivity (A)/(B) (HDAC6; HDAC1 IC50 / HDAC6 IC50): 2585
IC50 (HDAC6; read-out: HDAC6 IC50 (B)): 2 nM
Cmax [1]: 1150 ng/mL
AUC ([1]; unit inferred): 12500 ng·h/mL
Compound: CCc1nc2cc(F)c(/C=C/C(=O)NO)cc2c(=O)n1-c1c(C)cccc1C [Compound 2, (E)-3-(3-(2,6-dimethylphenyl)-2-ethyl-7-fluoro-4-oxo-3,4-dihydroquinazolin-6-yl)-N-hydroxyacrylamide]
tubulin hyperacetylation [2]: tubulin hyperacetylation
neurite degeneration (neurite area and number of blebs ratio) (Rat DRG cells): significantly lesser degree of neurite degeneration
IL-6 level in the BALF (IL-6): suppressed IL-6 level in the BALF
fibrosis-related matrix activities ([3]; BioMAP readouts): decreased TIMP-1, MMP-1, Collagen I, Collagen III, MMP-9
inflammation-related activities ([3]; BioMAP readouts): decreased M-CSF, VCAM-1, sIL-6, MCP-1; increased I-TAC
myofibroblast activation-related activities ([3]; BioMAP readouts): decreased αSMA, N-Cadherin
tissue remodeling/wound healing activities ([3]; BioMAP readouts): decreased EGFR, tPA, uPA, bFGF, sVEGF
activities on cytokines contributing to fibrosis ([3]; compared with nintedanib): marked activities in decreasing TNF-α, IL-1, IL-6, MMP-9, VEGF, and collagen I
